In patent publication US20260055114A1, “IMIDAZO[1,2-B]PYRIDAZINE INHIBITORS OF CYCLIN-DEPENDENT KINASES” (H. LEE MOFFITT CANCER CENTER AND RESEARCH INSTITUTE, INC., priority 2022, published 2026):

What was measured:
[1] = target: CDK12 (Homo sapiens, UniProt Q9NYV4); test: Inhibition of cyclin-dependent kinase 12 (% enzyme activity at 1 uM and IC50); assay type: biochemical; conditions: for remaining activity at 1 µM: 1 uM compound
[2] = system: MDA-MB-231 cell line; test: Antiproliferative activity, MDA-MB-231 cell line (GI50); assay type: cell-based; conditions: Homo sapiens
[3] = system: CCNK; test: CCNK degradation (DC50, Dmax); assay type: cell-based; conditions: for Dmax (%): CCNK degradation

Sequence of CDK12 (Q9NYV4 whole entry): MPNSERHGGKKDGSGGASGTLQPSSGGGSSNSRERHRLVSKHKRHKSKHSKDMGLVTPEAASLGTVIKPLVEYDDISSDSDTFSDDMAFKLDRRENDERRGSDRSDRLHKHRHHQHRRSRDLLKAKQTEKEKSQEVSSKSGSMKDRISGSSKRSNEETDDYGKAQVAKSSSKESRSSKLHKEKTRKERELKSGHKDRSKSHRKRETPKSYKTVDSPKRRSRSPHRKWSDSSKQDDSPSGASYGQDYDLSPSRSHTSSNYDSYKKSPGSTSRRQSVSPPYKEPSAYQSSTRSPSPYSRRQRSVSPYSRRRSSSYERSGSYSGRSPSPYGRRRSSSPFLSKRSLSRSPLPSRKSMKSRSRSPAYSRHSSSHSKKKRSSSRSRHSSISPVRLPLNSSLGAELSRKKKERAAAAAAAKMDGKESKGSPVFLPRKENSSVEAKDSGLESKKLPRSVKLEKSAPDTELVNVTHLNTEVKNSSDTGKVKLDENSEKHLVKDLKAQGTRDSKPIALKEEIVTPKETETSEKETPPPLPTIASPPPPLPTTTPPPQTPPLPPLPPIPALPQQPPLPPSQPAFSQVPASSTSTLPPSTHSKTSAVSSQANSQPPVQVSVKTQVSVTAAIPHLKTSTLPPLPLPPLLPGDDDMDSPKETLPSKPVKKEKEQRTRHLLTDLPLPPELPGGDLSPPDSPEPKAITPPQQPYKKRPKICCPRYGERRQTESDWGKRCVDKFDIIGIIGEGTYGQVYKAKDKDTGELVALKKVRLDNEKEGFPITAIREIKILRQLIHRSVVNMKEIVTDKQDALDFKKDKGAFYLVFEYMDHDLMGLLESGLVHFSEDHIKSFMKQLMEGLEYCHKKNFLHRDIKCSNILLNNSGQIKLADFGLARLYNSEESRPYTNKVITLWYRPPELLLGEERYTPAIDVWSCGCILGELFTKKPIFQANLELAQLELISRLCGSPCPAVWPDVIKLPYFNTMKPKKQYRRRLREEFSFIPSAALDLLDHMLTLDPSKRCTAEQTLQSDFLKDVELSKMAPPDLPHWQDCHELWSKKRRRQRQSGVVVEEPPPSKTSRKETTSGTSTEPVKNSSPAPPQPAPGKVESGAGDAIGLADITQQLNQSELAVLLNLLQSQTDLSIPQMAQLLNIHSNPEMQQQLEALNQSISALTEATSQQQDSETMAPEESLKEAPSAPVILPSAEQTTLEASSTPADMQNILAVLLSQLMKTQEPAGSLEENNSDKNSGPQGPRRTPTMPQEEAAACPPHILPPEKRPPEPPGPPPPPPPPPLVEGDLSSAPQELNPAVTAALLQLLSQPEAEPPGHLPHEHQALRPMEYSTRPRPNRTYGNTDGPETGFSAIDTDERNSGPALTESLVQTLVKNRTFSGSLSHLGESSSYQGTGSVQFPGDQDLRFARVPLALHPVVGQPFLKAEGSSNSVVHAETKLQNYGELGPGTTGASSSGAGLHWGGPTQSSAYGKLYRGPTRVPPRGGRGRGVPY
Sequence of CDK12 (O75909 whole entry partner): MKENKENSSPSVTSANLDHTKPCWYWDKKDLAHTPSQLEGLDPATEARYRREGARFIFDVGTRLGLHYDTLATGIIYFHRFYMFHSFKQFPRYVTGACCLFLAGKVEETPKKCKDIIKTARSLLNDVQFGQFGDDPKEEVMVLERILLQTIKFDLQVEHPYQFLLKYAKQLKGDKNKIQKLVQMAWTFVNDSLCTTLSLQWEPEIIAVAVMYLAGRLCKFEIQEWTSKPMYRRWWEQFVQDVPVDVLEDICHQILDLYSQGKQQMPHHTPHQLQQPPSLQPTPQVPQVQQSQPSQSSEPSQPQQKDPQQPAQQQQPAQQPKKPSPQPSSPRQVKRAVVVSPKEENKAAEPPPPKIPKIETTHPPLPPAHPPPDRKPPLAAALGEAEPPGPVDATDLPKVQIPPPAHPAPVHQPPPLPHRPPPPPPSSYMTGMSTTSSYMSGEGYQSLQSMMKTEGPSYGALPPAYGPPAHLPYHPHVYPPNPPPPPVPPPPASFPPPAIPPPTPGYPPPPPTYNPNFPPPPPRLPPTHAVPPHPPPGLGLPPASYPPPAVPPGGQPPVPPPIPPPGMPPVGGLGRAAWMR

| remaining activity at 1 µM [1] | GI50 [2] | DC50 [3] | IC50 [1] | SMILES | Dmax (%) [3] |
| --- | --- | --- | --- | --- | --- |
| 82% | 460 nM | 1800 nM | – | Cc1cc(-c2cnc3c(NCc4nc5cc(Cl)c(Cl)cc5[nH]4)cc(N4CCOCC4)nn23)cs1 [Cmpd 88, N-((5,6-dichloro-1H-benzo[d]imidazol-2-yl)methyl)-3-(5-methylthiophen-3-yl)-6-morpholinoimidazo[1,2-b]pyridazin-8-amine] | 100% |
| – | 406 nM | 260 nM | 65 nM | Cc1ccnc2[nH]c(CNc3cc(N4CCOCC4)nn4c(-c5cnn(C(F)F)c5)cnc34)nc12 [Cmpd 58, 3-(1-(difluoromethyl)-1H-pyrazol-4-yl)-N-((7-methyl-3H-imidazo[4,5-b]pyridin-2-yl)methyl)-6-morpholinoimidazo[1,2-b]pyridazin-8-amine] | 100% |
| 61% | 10000 nM | 920 nM | – | Fc1ccc2[nH]c(CNc3cc(N4CCOCC4)nn4c(-c5cnn(C6CC6)c5)cnc34)nc2c1F [Cmpd 39, 3-(1-cyclopropyl-1H-pyrazol-4-yl)-N-((4,5-difluoro-1H-benzo[d]imidazol-2-yl)methyl)-6-morpholinoimidazo[1,2-b]pyridazin-8-amine] | 80% |
| – | 146 nM | 140 nM | 38 nM | Cc1ccnc2[nH]c(CNc3cc(N4CCN(C)CC4)nn4c(-c5ccsc5)cnc34)nc12 [Cmpd 75, N-((7-methyl-3H-imidazo[4,5-b]pyridin-2-yl)methyl)-6-(4-methylpiperazin-1-yl)-3-(thiophen-3-yl) imidazo[1,2-b]pyridazin-8-amine] | 80% |
| – | 3840 nM | 460 nM | 3000 nM | Cn1cc(-c2cnc3c(NCc4nc5c(F)c(F)ccc5[nH]4)cc(N4CCOCC4)nn23)cn1 [Cmpd 6, N-((4,5-difluoro-1H-benzo[d]imidazol-2-yl)methyl)-3-(1-methyl-1H-pyrazol-4-yl)-6-morpholinoimidazo[1,2-b]pyridazin-8-amine] | 75% |
| 45% | 4670 nM | 830 nM | 1220 nM | Fc1cccc2[nH]c(CNc3cc(N4CCOCC4)nn4c(-c5cnn(C6CC6)c5)cnc34)nc12 [Cmpd 36, 3-(1-cyclopropyl-1H-pyrazol-4-yl)-N-((4-fluoro-1H-benzo[d]imidazol-2-yl)methyl)-6-morpholinoimidazo[1,2-b]pyridazin-8-amine] | 65% |
| – | 424 nM | 1300 nM | 10000 nM | CN1CCN(c2cc(NCc3nc4cc(Cl)c(Cl)cc4[nH]3)c3ncc(-c4cnn(C)c4)n3n2)CC1 [Cmpd 8, N-((5,6-dichloro-1H-benzo[d]imidazol-2-yl)methyl)-3-(1-methyl-1H-pyrazol-4-yl)-6-(4-methylpiperazin-1-yl) imidazo[1,2-b]pyridazin-8-amine] | 100% |
| 45% | 4430 nM | 1400 nM | 2080 nM | CN1CCN(c2cc(NCc3nc4cccc(Cl)c4[nH]3)c3ncc(-c4cnn(C5CC5)c4)n3n2)CC1 [Cmpd 32, N-((7-chloro-1H-benzo[d]imidazol-2-yl)methyl)-3-(1-cyclopropyl-1H-pyrazol-4-yl)-6-(4-methylpiperazin-1-yl) imidazo[1,2-b]pyridazin-8-amine] | 50% |
| – | 25 nM | 180 nM | 68 nM | CN1CCC(Nc2cc(NCc3nc4cc(Cl)c(Cl)cc4[nH]3)c3ncc(-c4cnn(C(F)F)c4)n3n2)CC1 [Cmpd 46, N8-((5,6-dichloro-1H-benzo[d]imidazol-2-yl)methyl)-3-(1-(difluoromethyl)-1H-pyrazol-4-yl)-N6-(1-methylpiperidin-4-yl) imidazo[1,2-b]pyridazine-6,8-diamine] | 100% |
| 53% | 6070 nM | 10000 nM | 1110 nM | CC(C)n1cc(-c2cnc3c(NCc4nc5c(F)cccc5[nH]4)cc(N4CCN(C)CC4)nn23)cn1 [Cmpd 26, N-((4-fluoro-1H-benzo[d]imidazol-2-yl)methyl)-3-(1-isopropyl-1H-pyrazol-4-yl)-6-(4-methylpiperazin-1-yl) imidazo[1,2-b]pyridazin-8-amine] | – |
| – | 33 nM | 10 nM | 65 nM | Clc1cccc2nc(CNc3cc(N4CCNCC4)nn4c(-c5ccsc5)cnc34)[nH]c12 [Cmpd 68, N-((7-chloro-1H-benzo[d]imidazol-2-yl)methyl)-6-(piperazin-1-yl)-3-(thiophen-3-yl) imidazo[1,2-b]pyridazin-8-amine] | 90% |
| 36% | 4160 nM | 10000 nM | 1410 nM | Cc1cc(-c2cnc3c(NCc4nc5c(C)ccnc5[nH]4)cc(N4CCN(C)CC4)nn23)cs1 [Cmpd 90, N-((7-methyl-3H-imidazo[4,5-b]pyridin-2-yl)methyl)-6-(4-methylpiperazin-1-yl)-3-(5-methylthiophen-3-yl) imidazo[1,2-b]pyridazin-8-amine] | – |
| 60% | 10000 nM | 2100 nM | 1270 nM | CC(C)n1cc(-c2cnc3c(NCc4nc5c(F)c(F)ccc5[nH]4)cc(N4CCOCC4)nn23)cn1 [Cmpd 24, N-((4,5-difluoro-1H-benzo[d]imidazol-2-yl)methyl)-3-(1-isopropyl-1H-pyrazol-4-yl)-6-morpholinoimidazo[1,2-b]pyridazin-8-amine] | 65% |
| – | 127 nM | 180 nM | 36 nM | FC(F)n1cc(-c2cnc3c(NCc4nc5cc(Cl)c(Cl)cc5[nH]4)cc(N4CCOCC4)nn23)cn1 [Cmpd 42, N-((5,6-dichloro-1H-benzo[d]imidazol-2-yl)methyl)-3-(1-(difluoromethyl)-1H-pyrazol-4-yl)-6-morpholinoimidazo[1,2-b]pyridazin-8-amine] | 100% |
| – | 365 nM | 1200 nM | 567 nM | NC1CCN(c2cc(NCc3nc4cc(Cl)c(Cl)cc4[nH]3)c3ncc(-c4cnn(C(F)F)c4)n3n2)CC1 [Cmpd 45, 6-(4-aminopiperidin-1-yl)-N-((5,6-dichloro-1H-benzo[d]imidazol-2-yl)methyl)-3-(1-(difluoromethyl)-1H-pyrazol-4-yl) imidazo[1,2-b]pyridazin-8-amine] | 100% |
| – | 78 nM | 180 nM | 2010 nM | CN1CCN(c2cc(NCc3nc4cc(Cl)c(Cl)cc4[nH]3)c3ncc(-c4ccsc4)n3n2)CC1 [Cmpd 63, N-((5,6-dichloro-1H-benzo[d]imidazol-2-yl)methyl)-6-(4-methylpiperazin-1-yl)-3-(thiophen-3-yl) imidazo[1,2-b]pyridazin-8-amine] | 100% |
| 48% | 9920 nM | 1800 nM | 997 nM | CC(C)n1cc(-c2cnc3c(NCc4nc5cccc(Cl)c5[nH]4)cc(N4CCOCC4)nn23)cn1 [Cmpd 18, N-((7-chloro-1H-benzo[d]imidazol-2-yl)methyl)-3-(1-isopropyl-1H-pyrazol-4-yl)-6-morpholinoimidazo[1,2-b]pyridazin-8-amine] | 70% |
